# According to US12465650B2, “Methods and compositions for targeting cancer cells in metastases” (THE BOARD OF REGENTS OF THE UNIVERSITY OF TEXAS SYSTEM, priority 2021, dated 2025):
# Bridge positions count the residues as written; N and C are the ends. Ends that are not written are not given here.
# Assays:
# [1] = system: Murine 3T3L1 preadipocytes; assay: anti-phage immunofluorescence, uptake by negative control cells; format: cell-based
# Description: (§1) Immunofluorescence for tissue and cell analysis: Immunofluorescence on cells and formalin-fixed paraffin-embedded tissue sections was performed as described Zhang et al., 2012). Primary antibodies used: rabbit anti-Fd bacteriophage (Sigma Aldrich, 1:500), rabbit anti-Asp175-cleaved Caspase3 (Cell Signaling Technology, 1:100), mouse anti-E Cadherin and mouse anti-N Cadherin (BD Biosciences, 1:100). Secondary antibodies used: donkey Alexa 488-conjugated IgG (Invitrogen, 1:300) and Cy3-conjugated IgG (Jackson ImmunoResearch, 1:300). Biotinylated peptide internalization was visualized with Cy3-conjugated streptavidin IgG (Thermo Fischer Scientific, 1:50). Nuclei were stained with Hoechst 33258 (Invitrogen, 1:2000). Tissue and cell images were acquired with a Nikon Eclipse TE2000E Widefield Fluorescence Microscope (Nikon Instruments Inc.). Image quantification included 5 random microscopic fields of view at 20× magnification. Images were processed and analyzed with ImageJ software (NIH and University of Wisconsin). Cadherin co-localization was quantified based on the previously described ImageJ software object based-approach (JACoP) methodology based on the Mander's coefficient (Bolte and Cordelieres, 2006).
# (§2) Murine 3T3L1 preadipocytes were used as a negative control and uptake was not observed for BLMP6-phage (FIG. 1C).
# [2] = system: mCherry-positive metastatic tumor cells (4T1.2); assay: in vivo bio-panning of CX7C/CX8C phage-peptide library for lung metastasis-homing peptides; design: species or system Balb/c mice; conditions: p≤0.0001
# Description: Animal experiments: Rodent studies were authorized by the Institutional Animal Care and Use Committees of UTHealth. Spontaneous cancer progression was modelled by injecting 2×10^4 4 T1.2 (mCherry+ Luciferase+) cells into the mammary fat pad of 10-week-old female Balb/c mice (Jackson Laboratory) with a 31-gauge needle. Primary tumor volume was measured weekly with calipers and calculated using the (length×width^2)/2 formula. At a tumor volume of ˜200 mm^3, mice were randomized into two cohorts and administered either vehicle (1×PBS) or cisplatin (Tocris Biosciences; 2.5 mg/kg) retro-orbitally once a week for three weeks. Metastatic progression was monitored with bioluminescence imaging. For experimental metastasis modeling in C57BL/6 mice (Jackson Laboratory), 1×10^5 B16F10 cells were intravenously injected into the tail vein and mice were used after 2 weeks. In both mice models, pulmonary metastases were observed 3 weeks post implantation. […] Selected phage were amplified through K91 E. coli infection and quantified via TU counting. For each round, clone enrichment was quantified based on recovery frequency among 96 phage peptide-coding inserts sequenced from PCR-amplified phage DNA (Kolonin et al., 2004). […] Radioactive uptake was measured using a Cobra II automated gamma counter (Packard) and expressed as percentage of the injected dose per gram tissue (% ID/g tissue). […]
# [3] = system: MDA-MB-231 human TNBC cells; assay: phage-peptide clone binding to human TNBC cells; format: cell-based; conditions: phage-displayed
# Source text: as §2
# [4] = system: 4T1.2 spontaneous metastases; assay: in vivo homing of individual phage-peptide clones, 4T1.2 model; design: species or system Balb/c mice; conditions: mouse
# Description: Animal experiments: Rodent studies were authorized by the Institutional Animal Care and Use Committees of UTHealth. Spontaneous cancer progression was modelled by injecting 2×10^4 4 T1.2 (mCherry+ Luciferase+) cells into the mammary fat pad of 10-week-old female Balb/c mice (Jackson Laboratory) with a 31-gauge needle. Primary tumor volume was measured weekly with calipers and calculated using the (length×width^2)/2 formula. At a tumor volume of ˜200 mm^3, mice were randomized into two cohorts and administered either vehicle (1×PBS) or cisplatin (Tocris Biosciences; 2.5 mg/kg) retro-orbitally once a week for three weeks. Metastatic progression was monitored with bioluminescence imaging. For experimental metastasis modeling in C57BL/6 mice (Jackson Laboratory), 1×10^5 B16F10 cells were intravenously injected into the tail vein and mice were used after 2 weeks. In both mice models, pulmonary metastases were observed 3 weeks post implantation. The screen for metastasis-homing peptides was performed using a 50:50 mixture of phage cyclic peptide libraries CX7C and CX8C (C: cysteine; X: any amino acid residue) provided by Erkki Koivunen (Arap et al., 2002). For every bio-panning round, a mouse with metastases (between weeks 3 and 4) was intravenously injected with 10^10 transducing units (TU) of the library. After 3 hours of circulation, the heart was perfused with 10 ml phosphate buffered saline (PBS). […] Selected phage were amplified through K91 E. coli infection and quantified via TU counting. For each round, clone enrichment was quantified based on recovery frequency among 96 phage peptide-coding inserts sequenced from PCR-amplified phage DNA (Kolonin et al., 2004). […] Radioactive uptake was measured using a Cobra II automated gamma counter (Packard) and expressed as percentage of the injected dose per gram tissue (% ID/g tissue).
# Immunofluorescence for tissue and cell analysis: Immunofluorescence on cells and formalin-fixed paraffin-embedded tissue sections was performed as described Zhang et al., 2012). […] Tissue and cell images were acquired with a Nikon Eclipse TE2000E Widefield Fluorescence Microscope (Nikon Instruments Inc.). Image quantification included 5 random microscopic fields of view at 20× magnification. Images were processed and analyzed with ImageJ software (NIH and University of Wisconsin). Cadherin co-localization was quantified based on the previously described ImageJ software object based-approach (JACoP) methodology based on the Mander's coefficient (Bolte and Cordelieres, 2006).
# (§3) Tissue biodistribution was analyzed by immunofluorescence using phage-specific antibodies. […]
# [5] = phage localization in cancer-free mice; conditions: mouse, in vivo
# Description: as §1, §3
# [6] = system: 4T1, B16F10 and MDA-MB-231 cancer cells that expressed N-cadherin but not E-cadherin; assay: co-localization with cadherins in cultured cell lines; format: cell-based, murine, human; conditions: reduced E-Cadherin expression
# Description: Cell lines and primary cell culture: All cell lines were cultured in DMEM media (Hyclone) supplemented with penicillin-streptomycin (Gibco) and 10% fetal bovine serum (Atlas Biologicals). B16F10, MDA-MB-231, and 3T3L1 cell lines were from ATCC. 4T1.2 (4T1) cells expressing mCherry and Luciferase were a gift from S. Mani. Cisplatin-resistant 4T1.2 (4T1.2-CTX) cells were generated after treatment with cisplatin (Tocris Biosciences, 180 ng/mL).
# as §1, with “Secondary antibodies used: donkey Alexa 488-conjugated IgG (Invitrogen, 1:300) and Cy3-conjugated IgG (Jackson ImmunoResearch, 1:300). Biotinylated peptide internalization was visualized with Cy3-conjugated streptavidin IgG (Thermo Fischer Scientific, 1:50). Nuclei were stained with Hoechst 33258 (Invitrogen, 1:2000).” left out, “2006). […]” for “2006).”
# [7] = system: 4T1, B16F10 and MDA-MB-231 tumor cell lines; assay: trypan blue exclusion assay, tumor cell lines; format: cell-based, murine, human; conditions: 0.1 mM
# Description: Peptides: The exemplary Hunter-killer (HK) peptides HK-BLMP5 and HK-BLMP6 were generated as “all-D-amino acid” cysteine-cyclized peptides (Celtek Bioscience). The proteolysis-resistant peptides were synthesized as acetate salts with an amino-hexanoic acid linker (NH—(CH2)5—CO) conjugating the BLMP and the apoptotic moiety KLAKLAKKLAKLAK (KLAKLAK2): SEQ ID NO:13. Following chromatographic purification, peptides were dissolved in PBS into 10 mM aliquots and stored frozen until further use. For the homing/internalization assay, peptides were biotin-labelled using the Sulfo-NHS-LC-Biotin Kit (APExBIO). Cells were plated in 24 well plates (1×10^5 cells/well), treated. Following treatment with either HK-BLMP6 (0.1 mM) or HK-BLMP5 (0.3 mM) in 0.5 ml serum free culture media for 8 hours, cells were stained with 0.4% Trypan Blue solution (MP Biomedicals) (Daquinag et al., 2016). For radioactive studies, 1,4,7,10-[…]-N′,N″,N′″,N″″-tetra-acetic acid (DOTA) t-Bu ester was purchased from Macrocyclics (Dallas, TX) and peptides were synthesized by Bachem Americas (Torrance, CA). DOTA-peptide conjugation was performed on solid-phase using previously described protocols (Azhdarinia et al., 2011). Radiolabeling with ^67GaCl3 and HPLC determination of purity were performed according to published procedures (Hernandez Vargas et al., 2019). […]
sequence,measurement,setting,value
CEGPMYAKC (disulfide 1-9 (inferred)) [BLMP3],non-specific uptake by 3T3L1 cells compared to phage-displayed BLMP6,[1],higher non-specific uptake
CGVLPYSLC (disulfide 1-9 (inferred)) [BLMP1],non-specific uptake by 3T3L1 cells compared to phage-displayed BLMP6,[1],higher non-specific uptake
CHLSFSTAC (disulfide 1-9 (inferred)) [BLMP4],non-specific uptake by 3T3L1 cells compared to phage-displayed BLMP6,[1],higher non-specific uptake
CLRHSSKIC (disulfide 1-9 (inferred)) [BLMP5],enrichment in the last round of bio-panning,[2],most significant enrichment
same,binding to MDA-MB-231 cells,[3],exhibited binding
same,distribution within primary 4T1.2 tumor,[4],dispersed throughout the tumor
same,localization within macro-metastases,[4],localized predominantly along the invasive edges
same,non-specific uptake by 3T3L1 cells compared to phage-displayed BLMP6,[1],higher non-specific uptake
same,localization to lungs in cancer-free mice,[5],lack of BLMP-phage localization to lungs
CRAGVGRGC (disulfide 1-9 (inferred)) [BLMP6],enrichment in the last round of bio-panning,[2],most significant enrichment
same,binding to MDA-MB-231 cells,[3],exhibited binding
same,distribution within primary 4T1.2 tumor,[4],observed selectively in a sub-population of cells associated with the vasculature
same,localization within macro-metastases,[4],abundant throughout
same,binding to cisplatin-resistant 4T1.2 cells,[6],maintaining BLMP6 binding
same,localization to lungs in cancer-free mice,[5],lack of BLMP-phage localization to lungs
CSGVGIASC (disulfide 1-9 (inferred)) [BLMP2],non-specific uptake by 3T3L1 cells compared to phage-displayed BLMP6,[1],higher non-specific uptake
"KLAKLAKKLAKLAK [KLAKLAK2, untargeted apoptosis-inducing moiety]",cell death (trypan blue),[7],No cancer cell death
